Test results reported in patent US20250188092A1, “RIFAMYCIN ANALOGS” (THE REGENTS OF THE UNIVERSITY OF MICHIGAN, priority 2021, published 2025).
Converted amounts (≈) assume the structure as drawn. “And” between values parts separate entries of the source, which are not always exact repeats. Equal values may be shown once. Read-outs that look alike come from different tables or passages of the source.

How the values were obtained:
[1] = target: T1, E. coli WT RNAP (Escherichia coli, UniProt P0A8V2); test: biochemical
T1 construct: made in house
T1 sequence (P0A8V2 whole entry): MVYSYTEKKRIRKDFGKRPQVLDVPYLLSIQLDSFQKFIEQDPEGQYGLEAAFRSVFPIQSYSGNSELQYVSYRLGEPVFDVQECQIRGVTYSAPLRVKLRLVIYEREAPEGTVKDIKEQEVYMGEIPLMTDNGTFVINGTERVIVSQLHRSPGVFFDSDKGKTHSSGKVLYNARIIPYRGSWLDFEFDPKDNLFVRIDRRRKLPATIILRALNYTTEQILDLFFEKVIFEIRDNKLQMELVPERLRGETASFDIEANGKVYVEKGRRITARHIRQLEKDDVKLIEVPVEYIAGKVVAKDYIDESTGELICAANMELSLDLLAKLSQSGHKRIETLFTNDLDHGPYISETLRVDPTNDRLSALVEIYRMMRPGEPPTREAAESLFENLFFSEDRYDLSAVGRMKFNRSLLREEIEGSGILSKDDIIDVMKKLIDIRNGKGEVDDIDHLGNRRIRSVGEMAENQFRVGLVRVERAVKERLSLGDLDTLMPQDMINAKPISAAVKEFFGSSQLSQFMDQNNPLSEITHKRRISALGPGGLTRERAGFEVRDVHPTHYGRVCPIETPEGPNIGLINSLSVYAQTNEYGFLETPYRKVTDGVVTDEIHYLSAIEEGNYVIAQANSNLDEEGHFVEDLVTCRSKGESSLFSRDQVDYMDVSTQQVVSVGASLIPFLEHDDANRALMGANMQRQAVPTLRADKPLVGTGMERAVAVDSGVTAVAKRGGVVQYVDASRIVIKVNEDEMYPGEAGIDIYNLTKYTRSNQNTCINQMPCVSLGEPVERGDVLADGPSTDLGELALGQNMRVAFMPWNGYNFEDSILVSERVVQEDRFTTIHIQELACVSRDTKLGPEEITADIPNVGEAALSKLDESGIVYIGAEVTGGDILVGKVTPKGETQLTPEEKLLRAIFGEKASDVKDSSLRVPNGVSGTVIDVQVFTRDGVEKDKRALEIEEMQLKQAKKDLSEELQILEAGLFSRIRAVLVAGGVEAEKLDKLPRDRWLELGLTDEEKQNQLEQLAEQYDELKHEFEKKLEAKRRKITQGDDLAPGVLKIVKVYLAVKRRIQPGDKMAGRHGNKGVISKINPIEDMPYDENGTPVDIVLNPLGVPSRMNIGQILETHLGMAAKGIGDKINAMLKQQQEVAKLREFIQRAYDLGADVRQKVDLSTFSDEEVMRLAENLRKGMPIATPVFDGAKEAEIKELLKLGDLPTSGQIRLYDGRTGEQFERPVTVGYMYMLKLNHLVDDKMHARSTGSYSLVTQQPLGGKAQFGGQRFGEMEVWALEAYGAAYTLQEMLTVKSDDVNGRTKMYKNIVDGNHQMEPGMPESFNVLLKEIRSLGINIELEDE
T1 sequence (P0A8T7 whole entry partner): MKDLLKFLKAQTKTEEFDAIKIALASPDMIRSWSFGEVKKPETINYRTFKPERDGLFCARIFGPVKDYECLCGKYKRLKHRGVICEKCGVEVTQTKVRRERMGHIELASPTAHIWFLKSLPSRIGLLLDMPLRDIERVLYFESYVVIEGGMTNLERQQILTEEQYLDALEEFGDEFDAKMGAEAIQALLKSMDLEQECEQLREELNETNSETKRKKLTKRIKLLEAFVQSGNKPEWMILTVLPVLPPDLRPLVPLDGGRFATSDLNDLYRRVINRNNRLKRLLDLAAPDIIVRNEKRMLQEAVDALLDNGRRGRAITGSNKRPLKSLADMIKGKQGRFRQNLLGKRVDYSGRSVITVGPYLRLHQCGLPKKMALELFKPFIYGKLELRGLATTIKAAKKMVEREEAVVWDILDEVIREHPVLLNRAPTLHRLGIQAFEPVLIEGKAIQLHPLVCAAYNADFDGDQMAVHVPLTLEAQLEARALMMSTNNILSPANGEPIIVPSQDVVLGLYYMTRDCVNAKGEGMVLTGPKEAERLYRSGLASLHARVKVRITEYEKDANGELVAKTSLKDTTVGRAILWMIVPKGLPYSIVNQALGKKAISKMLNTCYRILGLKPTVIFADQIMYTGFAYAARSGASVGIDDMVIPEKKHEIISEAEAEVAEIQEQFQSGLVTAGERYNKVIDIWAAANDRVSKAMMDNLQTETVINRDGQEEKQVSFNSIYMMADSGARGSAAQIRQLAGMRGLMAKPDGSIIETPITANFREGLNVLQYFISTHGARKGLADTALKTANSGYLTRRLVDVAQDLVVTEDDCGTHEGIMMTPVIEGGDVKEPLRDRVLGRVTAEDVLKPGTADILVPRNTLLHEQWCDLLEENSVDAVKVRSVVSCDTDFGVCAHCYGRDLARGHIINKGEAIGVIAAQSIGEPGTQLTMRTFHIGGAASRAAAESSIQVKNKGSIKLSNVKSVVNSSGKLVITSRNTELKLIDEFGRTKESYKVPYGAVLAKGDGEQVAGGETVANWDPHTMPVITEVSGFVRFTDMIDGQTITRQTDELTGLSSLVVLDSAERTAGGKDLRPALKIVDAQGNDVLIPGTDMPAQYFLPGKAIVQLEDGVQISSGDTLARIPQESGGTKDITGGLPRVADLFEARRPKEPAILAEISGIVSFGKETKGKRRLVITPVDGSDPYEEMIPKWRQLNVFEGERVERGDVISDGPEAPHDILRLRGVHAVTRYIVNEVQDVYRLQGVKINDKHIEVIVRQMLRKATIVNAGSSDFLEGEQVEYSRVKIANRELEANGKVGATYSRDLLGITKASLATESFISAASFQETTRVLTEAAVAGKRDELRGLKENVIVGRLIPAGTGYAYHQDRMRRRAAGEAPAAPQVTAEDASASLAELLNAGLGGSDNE
T1 sequence (P0A7Z4 whole entry partner): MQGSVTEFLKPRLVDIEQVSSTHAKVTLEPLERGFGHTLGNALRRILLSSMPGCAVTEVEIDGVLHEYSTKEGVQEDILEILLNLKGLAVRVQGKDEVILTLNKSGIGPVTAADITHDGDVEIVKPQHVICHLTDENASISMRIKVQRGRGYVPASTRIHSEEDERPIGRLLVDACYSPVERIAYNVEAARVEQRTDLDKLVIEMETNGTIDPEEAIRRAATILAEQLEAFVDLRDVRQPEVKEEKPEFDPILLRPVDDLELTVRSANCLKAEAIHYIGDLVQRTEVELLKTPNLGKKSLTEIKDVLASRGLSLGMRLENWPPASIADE
T1 sequence (P0A800 whole entry partner): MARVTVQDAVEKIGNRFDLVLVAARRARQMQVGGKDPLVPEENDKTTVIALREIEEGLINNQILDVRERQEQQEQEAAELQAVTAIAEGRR
T1 sequence (P00579 whole entry partner): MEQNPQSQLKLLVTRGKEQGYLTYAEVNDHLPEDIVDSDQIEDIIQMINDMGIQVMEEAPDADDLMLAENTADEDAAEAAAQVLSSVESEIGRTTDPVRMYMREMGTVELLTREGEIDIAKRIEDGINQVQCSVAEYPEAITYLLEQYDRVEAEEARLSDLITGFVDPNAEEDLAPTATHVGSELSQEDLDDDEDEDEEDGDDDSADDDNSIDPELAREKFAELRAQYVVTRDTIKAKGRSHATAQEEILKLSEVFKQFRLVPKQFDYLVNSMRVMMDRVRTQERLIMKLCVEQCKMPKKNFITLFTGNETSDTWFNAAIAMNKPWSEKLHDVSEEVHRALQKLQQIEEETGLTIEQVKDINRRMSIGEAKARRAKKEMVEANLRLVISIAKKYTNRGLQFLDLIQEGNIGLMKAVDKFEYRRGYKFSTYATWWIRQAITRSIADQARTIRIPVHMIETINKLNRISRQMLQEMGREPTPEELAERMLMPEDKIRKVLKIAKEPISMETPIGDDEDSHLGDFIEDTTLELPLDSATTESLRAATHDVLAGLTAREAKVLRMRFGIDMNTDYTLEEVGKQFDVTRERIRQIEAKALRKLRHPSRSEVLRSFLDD

[2] = system: VERO cells (ATCC CRL-81); test: Vero cell toxicity; type: cell-based; conditions: 72 hours exposure
Method: Cytotoxicity for a mammalian cell line was determined by exposing VERO cells (ATCC CRL-81) to serial dilutions of test compounds for 72 hours, followed by addition of resazurin and measurement of fluorescence after 4 hours incubation (Choules, et al., Antimnicrob. Agents Chemother. 2019, 63, e02204-02218).

[3] = system: MTB H37Rv ATCC 27294; test: MIC, microplate Alamar Blue assay (MABA); type: cell-based, Mycobacterium tuberculosis
[4] = system: M. tuberculosis H37Rv; test: Minimum bactericidal concentration (MBC, CFU Assay); type: cell-based, Mycobacterium tuberculosis
[5] = type: in vivo, BALB/c mice
Method: For i.v. dosing, the vehicle DMSO/PEG-400/PBS (1×) (5/60/35) was used. Female ˜20 g BALB/c mice (7-9 weeks old) were used in the study. Three mice were used for each set of conditions. […] Plasma concentrations were determined over 24 hrs in the single day study and on days 1 and 5 in the 5 day study. Lung exposure was also determined in the 1 day study at 24 hrs post dosing and on day 5 of the 5 day study at 4 hrs and 24 hrs post dosing. Compound concentrations were determined by reverse phase HPLC-MS against a standard curve.

[6] = system: M. tuberculosis Erdman; test: Mouse acute efficacy study (lung CFU); type: in vivo, BALB/c mice; conditions: for CFU/Mouse: day 21
[7] = system: DPX2 cells
[8] = type: in vivo, BALB/c mice; conditions: Day 1, Five Day Study, 4 hr
[9] = Mouse acute efficacy study: mice weight and adverse effects
[10] = mouse, in vivo
[11] = target: T2, WT MTB RNAP (Mycobacterium tuberculosis, UniProt P9WGY9); type: biochemical; conditions: lower limit of detection ~5 nM
T2 construct: made in house; host or cells: E. coli BL21(DE3)

[12] = target: T3, human pregnane X receptor (hPXR) (Homo sapiens, UniProt O75469)
T3 sequence (O75469 1-434): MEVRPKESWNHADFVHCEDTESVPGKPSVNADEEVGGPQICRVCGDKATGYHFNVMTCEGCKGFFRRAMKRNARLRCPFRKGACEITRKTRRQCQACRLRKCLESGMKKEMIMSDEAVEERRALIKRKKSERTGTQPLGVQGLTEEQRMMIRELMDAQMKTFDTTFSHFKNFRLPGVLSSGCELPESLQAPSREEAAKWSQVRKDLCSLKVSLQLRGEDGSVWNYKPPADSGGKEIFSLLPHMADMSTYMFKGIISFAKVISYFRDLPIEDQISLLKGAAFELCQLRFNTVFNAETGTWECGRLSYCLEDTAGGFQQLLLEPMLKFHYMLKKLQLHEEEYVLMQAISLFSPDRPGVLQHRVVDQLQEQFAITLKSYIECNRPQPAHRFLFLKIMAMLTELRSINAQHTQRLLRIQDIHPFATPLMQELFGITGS

[13] = system: MTB H37Rv; conditions: cited from earlier work
[14] = human trials; cited from earlier work
[15] = target: hPXR (Homo sapiens, UniProt O75469); conditions: cited from earlier work
[16] = system: CYP 3A4; conditions: human, 24 h
[17] = 100 mg/kg QD, PEG-water vehicle
[18] = Mycobacterium tuberculosis, MTB H37Rv ATCC 27294, microplate Alamar Blue assay, lowest concentration giving ≥90% reduction in fluorescence

## CO[C@H]1/C=C/O[C@@]2(C)Oc3c(C)c(O)c4c(=O)c(c5oc6cc(N7CCN(CC(C)C)CC7)cc(OCc7ccc(CN8CCOCC8)cc7)c6nc-5c4c3C2=O)NC(=O)/C(C)=C\C=C\[C@H](C)[C@H](O)[C@@H](C)[C@@H](O)[C@@H](C)[C@H](OC(C)=O)[C@@H]1C [Compound 17e, (7S,9E,11S,12R,13S,14R,15R,16R,17S,18S,19E,21Z)-2,15,17-Trihydroxy-11-methoxy-3,7,12,14,16,18,22-heptamethyl-30-[4-(2-methylpropyl)piperazin-1-yl]-32-({4-[(morpholin-4-yl)methyl]phenyl}methoxy)-6,23,37-trioxo-8,27,38-trioxa-24,34-diazahexacyclo[23.11.1.1^4,7.0^5,36.0^26,35.0^28,33]octatriaconta-1(36)2,4,9,19,21,25,28,30,32,34-undecaen-13-yl acetate]
[1]
  IC50: 0.014 µM
[2]; Chlorocebus sabaeus, Vero
  IC50: > 10 µM
[3]
  MIC90 MABA Rel to RMP: 0.12
[3]; Mycobacterium tuberculosis, MTB H37Rv ATCC 27294, microplate Alamar Blue assay, lowest concentration giving ≥90% reduction in fluorescence, read-out: MIC90 MABA
  MIC: 0.005 µM
[4]
  MBC better than that of rifampin: ~5 fold
[5]; Day 1, Five Day Study, 4 hr
  Plasma concentration, Avg: 360 ng/mL and 319 nM
[5]; Day 1, One Day Study, 24 hr
  Lung Homogenate concentration, Avg: 164 ng/mL and 145 nM
  Plasma concentration, Avg: 327 ng/mL and 289 nM
[5]; Day 5, Five Day Study, 4 hr
  Lung Homogenate concentration, Avg: 323 ng/mL and 286 nM
  Plasma concentration, Avg: 688 ng/mL and 608 nM
[5]; Day 5, Five Day Study, 24 hr
  Lung Homogenate concentration, Avg: 41 ng/mL and 36 nM
  Plasma concentration, Avg: 121 ng/mL and 107 nM
[6]; 100 mg/kg PO
  effectiveness versus rifampin control at 15 mg/kg in the same vehicle: at least equal in effectiveness
[6]; [17]
  CFU/Mouse: 4,029
[7]; 6.25 μM, 24 h
  DPX2 Viability @ 6.25 μM: 113%
[7]; human
  DPX2 Viability @ 25 μM: 95%
[8]
  Lung Homogenate concentration, Avg: 248 ng/mL and 219 nM
[9]; [17]
  Mice Weight (g) Day 0: 20.4 g
  Mice Weight (g) Day 31: 21.0 g
[9]; 3-week treatment period
  adverse effects noted in the mice: no adverse effects

## CO[C@H]1/C=C/O[C@@]2(C)Oc3c(C)c(O)c4c(O)c(c(/C=N/N5CCN(C)CC5)c(O)c4c3C2=O)NC(=O)/C(C)=C\C=C\[C@H](C)[C@H](O)[C@@H](C)[C@@H](O)[C@@H](C)[C@H](OC(C)=O)[C@@H]1C [RMP, rifampin, reference compound]
[2]; Chlorocebus sabaeus, Vero
  IC50: > 100 µM
[3]; MABA MIC90 relative to rifampin (RMP = 1)
  MIC90 MABA Rel to RMP: 1
[3]; [18]
  MIC90: 0.027 µM (≈ 0.0222 µg/mL)
[4]; CFU Assay MBC99 relative to rifampin (RMP = 1)
  MBC99 Day 7 (CFU Assay) MBC99 Rel to RMP: 1
[4]; Mycobacterium tuberculosis, 168 h, Day 7, M. tuberculosis H37Rv, ≥99% reduction in colony forming units, read-out: MBC99 Day 7 (CFU Assay) MBC99
  MBC: 0.13 µM (≈ 0.107 µg/mL)
[6]; 15 mg/kg QD, CMC-Tween vehicle
  CFU/Mouse: 857
[6]; 15 mg/kg QD, PEG-water vehicle
  CFU/Mouse: 8,443
[10]
  adverse effects noted in the mice: no adverse effects

## CO[C@H]1/C=C/O[C@@]2(C)Oc3c(C)c(O)c4c(=O)c(c5oc6cc(N7CCN(C(=O)c8cccc(-c9ccccn9)c8)CC7)cc(OCc7ccc(CN8CCOCC8)cc7)c6nc-5c4c3C2=O)NC(=O)/C(C)=C\C=C\[C@H](C)[C@H](O)[C@@H](C)[C@@H](O)[C@@H](C)[C@H](OC(C)=O)[C@@H]1C [Compound 17r, (7S,9E,11S,12R,13S,14R,15R,16R,17S,18S,19E,21Z)-2,15,17-trihydroxy-11-methoxy-3,7,12,14,16,18,22-heptamethyl-32-{[4-(morpholin-4-ylmethyl)phenyl]methoxy}-6,23,37-trioxo-30-(4-{[3-(pyridin-2-yl)phenyl]carbonyl}piperazin-1-yl)-8,27,38-trioxa-24,34-diazahexacyclo[23.11.1.1^4,7.0^5,36.0^26,35.0^28,33]octatriaconta-1,3,5(36)9,19,21,25,28,30,32,34-undecaen-13-yl acetate]
[11]
  IC50: 0.0098 µM
[2]
  IC50: > 10 µM
[3]
  MIC90 MABA Rel to RMP: 0.46
[3]; MTB H37Rv ATCC 27294, microplate Alamar Blue assay, lowest concentration giving ≥90% reduction in fluorescence
  MIC90: 0.023 µM
[12]
  hPXR Fold Act. (lucif) @ 6.25 μM: 1 fold
  hPXR Fold Act. (lucif) @ 25 μM: 1 fold
[7]
  DPX2 Viability @ 6.25 μM: 105%
  DPX2 Viability @ 25 μM: 94%

## CO[C@H]1/C=C/O[C@@]2(C)Oc3c(C)c(O)c4c(=O)c(c5oc6cc(N7CCN(CC(C)C)CC7)cc(O)c6nc-5c4c3C2=O)NC(=O)/C(C)=C\C=C\[C@H](C)[C@H](O)[C@@H](C)[C@@H](O)[C@@H](C)[C@H](OC(C)=O)[C@@H]1C [RLZ, rifalazil, reference compound]
[3]
  MIC90 MABA Rel to RMP: 0.04
[3]; [18]
  MIC90: 0.0011 µM (≈ 0.00104 µg/mL)
[12]
  activation of hPXR: no activation
[7]; 6.25 μM, 24 h
  DPX2 Viability @ 6.25 μM: 108%
[7]; at 100 pt
  loss of cell viability: ~2 fold
[7]; human
  DPX2 Viability @ 25 μM: 96%
[13]
  more potent than RMP against MTB H37Rv in vitro: 29 fold
[14]
  half-life: 60 to 100 h
[15]
  hPXR activation: does not activate

## CO[C@H]1/C=C/O[C@@]2(C)Oc3c(C)c(O)c4c(O)c(c(/C=N/N5CCN(C6CCCC6)CC5)c(O)c4c3C2=O)NC(=O)/C(C)=C\C=C\[C@H](C)[C@H](O)[C@@H](C)[C@@H](O)[C@@H](C)[C@H](OC(C)=O)[C@@H]1C [RFP, rifapentine, reference compound]
[16]; 6.25 μM
  hPXR Fold Act. (CYP 3A4) @ 6.25 μM: 20.3 fold
[16]; 25 μM
  hPXR Fold Act. (CYP 3A4) @ 25 μM: 20.5 fold
[7]; human, 24 h, 6.25 μM
  DPX2 Viability @ 6.25 μM: 104%
[7]; human, 24 h, 25 μM
  DPX2 Viability @ 25 μM: 105%
